# pEC50: −log10 of the molar value. Where a name gives a salt, the structure may show the parent alone.
# Tested on: human ABCA1 promoter
# Assay: ABCA1 promoter test (luciferase reporter in stably transfected THP1 cell line)
# Type: cell-based
# Conditions: Homo sapiens, THP-1, 24 h; read-out: E50 ABCA1
# Experimental: The potency of substances which activate expression of the human ABCA1 gene via its promoter is analyzed by using a stably transfected THP1 cell line (human monocyte cell line) which is referred to herein as ABCA1 reporter cell line. It contains a fragment, 3.2 kb in size and stably integrated into the genome, of the human ABCA1 promoter in front of a luciferase reporter element. Expression of the luciferase reporter gene is only low without addition of an ABCA1 expression activator. The substances stimulating ABCA1 expression bring about, via activation of the ABCA1 promoter, an enhanced expression of the luciferase reporter gene. The luciferase which is formed can be detected via an appropriate substrate by means of chemiluminescence.
# Construction of the Cell Line
# The ABCA1 reporter line was prepared as follows: firstly the neomycin resistance gene (Acc. No.: AJ000156) was introduced into the luciferase reporter plasmid pLG3basic (#1751, Promega) 3′ below the luciferase reporter element. Subsequently, an ABCA1 promoter fragment, 3.2 kb in size and amplified from human genomic DNA (#6550-1, Clontech) by the polymerase chain reaction, was cloned in 5′ above the luciferase reporter element. The reporter plasmid produced in this way was called pGL3BN-ABCA1P. Luciferase expression in this plasmid is controlled by the ABCA1 promoter. Cloning and sequencing of the construct took place in analogy to the description in Sambrook J et al. (Molecular cloning, Cold Spring Harbor Laboratory Press, 1989). For stable transfection into THP1 cells, firstly pGL3BN-ABCA1P was linearized with a restriction endonuclease and then introduced into the THP1 cells as stated in Ausubel, F. M. et al. (Current protocols in molecular biology, Vol. 1-3, John Wiley & Sons, Inc., 1995).
# The activity of ABCA1 expression activators is determined in a 3-day test which is described below:
# The ABCA1 reporter cell line comprises suspension cells. These are cultured until the concentration is 0.5×10^6 cells/ml in RPMI medium (#52400-025, Invitrogen) which is mixed with the following additions: 10% FCS (fetal calf serum; #16000-044, invitrogen), 0.5 mg/ml Geneticin (#10131-019, invitrogen) and 1% penicillin-streptomycin solution (#15140-122, invitrogen). The culturing takes place in standard cell culture flasks (#353112, Becton Dickinson) in a cell culture incubator at 37° C. in the presence of 5% CO2.
# For the ABCA1 promoter test, the suspension cells are centrifuged at 1200 rpm in 50 ml tubes. The supernatant is aspirated off, and the pellet is resuspended in 15 ml of RPMI medium and counted in a cell counter. After dilution to 175 000 cells/ml, 0.1 μg/ml PMA (phorbol 12-myristate 13-acetate, #8139-5MG, Sigma) is added in order to induce differentiation of the monocytic THP1 suspension cells into adherent macrophages. 35 000 cells in each well are seeded in a 96-well microtiter plate with clear plastic base (#3610, Corning Costar). The plates are incubated in a cell culture incubator at 37° C. and 5% CO2 for 24 h.
# The ABCA1 expression activators to be tested are dissolved in a concentration of 10 mM in DMSO. This stock solution is diluted in the RPMI medium (mixed with 0.1 μg/ml PMA) described above. Test substances are tested in 11 different concentrations in the range from […] to 330 pM. The medium of the ABCA1 reporter cell line seeded on day 1 is completely removed by aspiration and the diluted test substances are immediately added to the cells. The dilution and addition of the substances takes place with a pipetting robot (Beckman FX). The final volume of the test substances diluted in medium is 100 μl per well of a 96-well microtiter plate. The DMSO concentration in the test is less than 0.1% v/v in order to avoid cytotoxic effects of the solvent.
# The test plates are incubated in an incubator at 37° C. and 5% CO2 for 24 h.
# The ABCA1 reporter cells treated with the test substances are removed from the incubator and the medium is aspirated off. […]
row,SMILES,pEC50
1,"Cc1ccc(C)c(N2CCN(C(=O)[C@H]3CN(S(=O)(=O)c4cccs4)C[C@H]3c3ccccc3)CC2)c1 (racemic) [Example 117, [4-(2,5-Dimethylphenyl)piperazin-1-yl]-[3,4-cis-4-phenyl-1-(thiophene-2-sulfonyl)pyrrolidin-3-yl]methanone]",6.54

# Same assay, conditions: Homo sapiens, THP-1; ABCA1 reporter cell line (THP1, PMA-differentiated), 24 h incubation, luciferase chemiluminescence; read-out: E50 ABCA1
row,pEC50,SMILES
1,5.55,"Cc1ccc([C@@H]2CN(S(=O)(=O)c3c(C)noc3C)C[C@H]2C(=O)N2CCN(c3cc(C)ccc3C)CC2)cc1 [Example 1, [1-(3,5-Dimethylisoxazole-4-sulfonyl)-3,4-trans-4-p-tolylpyrrolidin-3-yl]-[4-(2,5-dimethylphenyl)piperazin-1-yl]methanone trifluoroacetate]"
2,5.34,"O=C([C@@H]1CN(S(=O)(=O)c2cc(Cl)c(Cl)s2)C[C@H]1c1ccccc1)N1CCN(c2ccccc2)CC1 [Example 21, [1-(4,5-Dichlorothiophene-2-sulfonyl)-3,4-trans-4-phenylpyrrolidin-3-yl]-(4-phenylpiperazin-1-yl)methanone]"
3,6.36,"O=C([C@@H]1CN(S(=O)(=O)c2cccs2)C[C@H]1c1ccccc1)N1CCN(c2cc(Cl)ccc2Cl)CC1 [Example 66, [4-(2,5-Dichlorophenyl)piperazin-1-yl]-[3,4-trans-4-phenyl-1-(thiophene-2-sulfonyl)pyrrolidin-3-yl]methanone trifluoroacetate]"
4,6.06,"Cc1ccc(C)c(N2CCN(C(=O)[C@@H]3CN(S(=O)(=O)c4cccc5nonc45)C[C@H]3c3ccccc3)CC2)c1 [Example 68, [1-(Benzene[1,2,5-oxadiazol-4-sulfonyl)-3,4-trans-4-phenylpyrrolidin-3-yl]-[4-(2,5-dimethylphenyl)piperazin-1-yl]methanone trifluoroacetate]"
5,6.04,"Cc1ccc(C)c(N2CCN(C(=O)[C@@H]3CN(S(=O)(=O)C(C)C)C[C@H]3c3ccccc3)CC2)c1 [Example 70, [4-(2,5-Dimethylphenyl)piperazin-1-yl]-[3,4-trans-4-phenyl-1-(propan-2-sulfonyl)pyrrolidin-3-yl]methanone trifluoroacetate]"
6,6.62,"Cc1ccc(C)c(N2CCN(C(=O)[C@@H]3CN(S(=O)(=O)c4cccnc4)C[C@H]3c3ccccc3)CC2)c1 [Example 72, [4-(2,5-Dimethylphenyl)piperazin-1-yl]-[3,4-trans-4-phenyl-1-(pyridine-3-sulfonyl)pyrrolidin-3-yl]methanone trifluoroacetate]"
7,6.39,"O=C([C@@H]1CN(S(=O)(=O)c2cccnc2)C[C@H]1c1ccccc1)N1CCN(c2cc(Cl)ccc2Cl)CC1 [Example 73, [4-(2,5-Dichlorophenyl)piperazin-1-yl]-[3,4-trans-4-phenyl-1-(pyridine-3-sulfonyl)pyrrolidin-3-yl]methanone trifluoroacetate]"
8,6.47,"Cc1cccc(S(=O)(=O)N2C[C@@H](C(=O)N3CCN(c4cc(Cl)ccc4Cl)CC3)[C@H](c3ccccc3)C2)c1 [Example 74, [4-(2,5-Dichlorophenyl)piperazin-1-yl]-[3,4-trans-4-phenyl-1-(toluene-3-sulfonyl)pyrrolidin-3-yl]methanone trifluoroacetate]"
9,6.01,"COc1ccc(S(=O)(=O)N2C[C@@H](C(=O)N3CCN(c4cc(Cl)ccc4Cl)CC3)[C@H](c3ccccc3)C2)cc1 [Example 75, [4-(2,5-Dichlorophenyl)piperazin-1-yl]-[1-(4-methoxybenzenesulfonyl)-3,4-trans-4-phenylpyrrolidin-3-yl]methanone trifluoroacetate]"
10,5.51,"COc1ccc(OC)c(N2CCN(C(=O)[C@@H]3CN(S(=O)(=O)CC(F)(F)F)C[C@H]3c3ccccc3)CC2)c1 [Example 76, [4-(2,5-Dimethoxyphenyl)piperazin-1-yl]-[3,4-trans-4-phenyl-1-(2,2,2-trifluoroethanesulfonyl)pyrrolidin-3-yl]methanone trifluoroacetate]"
11,5.80,"COc1ccc(S(=O)(=O)N2C[C@@H](C(=O)N3CCN(c4cc(OC)ccc4OC)CC3)[C@H](c3ccccc3)C2)cc1 [Example 79, [4-(2,5-Dimethoxyphenyl)piperazin-1-yl]-[1-(4-methoxybenzenesulfonyl)-3,4-trans-4-phenylpyrrolidin-3-yl]methanone trifluoroacetate]"
12,5.50,"COc1ccc(OC)c(N2CCN(C(=O)[C@@H]3CN(S(=O)(=O)c4cccc(C)c4)C[C@H]3c3ccccc3)CC2)c1 [Example 80, [4-2,5-Dimethoxyphenyl)piperazin-1-yl]-[3,4-trans-4-phenyl-1-(toluene-3-sulfonyl)pyrrolidin-3-yl]methanone trifluoroacetate]"
13,5.74,COc1ccc(OC)c(N2CCN(C(=O)[C@@H]3CN(S(=O)(=O)c4c(C)noc4C)C[C@H]3c3ccccc3)CC2)c1 [Example 81]
14,5.83,"COc1cccc(S(=O)(=O)N2C[C@@H](C(=O)N3CCN(c4cc(OC)ccc4OC)CC3)[C@H](c3ccccc3)C2)c1 [Example 82, [4-(2,5-Dimethoxyphenyl)piperazin-1-yl]-[1-(3-methoxybenzenesulfonyl)-3,4-trans-4-phenylpyrrolidin-3-yl]methanone trifluoroacetate]"
15,5.52,"COc1ccc(OC)c(N2CCN(C(=O)[C@@H]3CN(S(=O)(=O)c4cccc5nonc45)C[C@H]3c3ccccc3)CC2)c1 [Example 83, [1-(Benzo[1,2,5]oxadiazole-4-sulfonyl)-3,4-trans-4-phenylpyrrolidin-3-yl]-[4-1-(2,5-dimethoxyphenyl)piperazin-1-yl]methanone trifluoroacetate]"
16,5.57,"COc1ccc(OC)c(N2CCN(C(=O)[C@@H]3CN(S(=O)(=O)c4cccs4)C[C@H]3c3ccccc3)CC2)c1 [Example 84, [4-(2,5-Dimethoxyphenyl)piperazin-1-yl]-[3,4-trans-4-phenyl-1-(thiophene-2-sulfonyl)pyrrolidin-3-yl]methanone trifluoroacetate]"
17,6.59,"Cc1ccccc1S(=O)(=O)N1C[C@@H](C(=O)N2CCN(c3cc(Cl)ccc3Cl)CC2)[C@H](c2ccccc2)C1 [Example 85, [[4-(2,5-Dichlorophenyl)piperazin-1-yl]-[3,4-trans-4-phenyl-1-(toluene-2-sulfonyl)pyrrolidin-3-yl]methanone trifluoroacetate]"
18,5.91,"Cc1ccc(C)c(N2CCN(C(=O)[C@@H]3CN(S(=O)(=O)c4c(C)noc4C)C[C@H]3c3ccc4c(c3)OCO4)CC2)c1 [Example 87, [3,4-trans-4-Benzo[1,3]dioxol-5-yl-1-(3,5-dimethylisoxazole-4-sulfonyl)-pyrrolidin-3-yl]-[4-(2,5-dimethylphenyl)piperazin-1-yl]methanone trifluoroacetate]"
19,5.57,"COc1cccc(S(=O)(=O)N2C[C@@H](C(=O)N3CCN(c4cc(C)ccc4C)CC3)[C@H](c3ccc4c(c3)OCO4)C2)c1 [Example 88, [3,4-trans-4-Benzo[1,3]dioxol-5-yl-1-(3-methoxybenzenesulfonyl)pyrrolidin-3-yl]-[4-(2,5-dimethylphenyl)piperazin-1-yl]methanone trifluoroacetate]"
20,4.78,"Cc1ccc(C)c(N2CCN(C(=O)[C@@H]3CN(S(=O)(=O)c4c(C)noc4C)C[C@H]3C)CC2)c1 [Example 90, [[1-(3,5-Dimethylisoxazole-4-sulfonyl)-3,4-trans-4-methylpyrrolidin-3-yl]-[4-(2,5-dimethylphenyl)piperazin-1-yl]methanone trifluoroacetate]"

# From US7468369B2, “Sulfonyl pyrrolidines, method for producing the same and their use as drugs” (Sanofi-Aventis, priority 2005, dated 2008)
